We go through 43 compounds from patent US20150269307A1, “TARGET INHIBITION MAP SYSTEM FOR COMBINATION THERAPY DESIGN AND METHODS OF USING SAME” (Texas Tech University System, priority 2014, published 2015).

The test system of experiment [1] is human patient-derived xenografts. Kind of experiment: Xenograft-derived chemical screen (Supplemental Table 3). The conditions noted are these: 60 agent PPTI screen; for IC50: read-out: IC50 Value. The format is cell-based. The procedure: Three chemical screens were applied to the U23674 primary tumor cell culture. […] The target inhibition profile is a quantified description of the inhibitory properties of the compound on the numerous protein targets preset on the PPTI screen.
To screen the chemical agents, cell cultures were plated in 384 well plates at a seeding density of 2000 cells per well over graded concentrations of the numerous compounds. The chemical concentrations were between 10 nM and […] depending on the activity range of the compounds. The cells were incubated in DMEM supplemented with 1% penicillin streptomycin, and 10% fetal bovine serum for 72 hours. Chemical sensitivity was determined by an MTS cell viability assay after the 72 hour incubation period. The sensitivity responses at the different concentrations were used to determine the chemical IC50 using a hill curve fitting algorithm with variable hill slope coefficients.

A further experiment deals with DIPG neurospheres. As to the kind of experiment: cells. Conditions: for IC50: 48 h, read-out: In Vitro Absolute IC50; for viability at 10 µM: read-out: cell viability (cytocidal).

Each structure is given as a SMILES string. Like-named read-outs stand apart in the source and are kept apart here.

The term IC50 denotes the concentration that inhibits the measured activity by half. Broadly, the viability is a read-out of living cells in per cent, often relative to untreated cells.

Protocol for DIPG neurospheres: Primary cultures of DIPG neurospheres were added to 384 well plates pre-plated with 60 known drugs in an increasing gradient of concentrations. […] To complete this drug screen, primary cultures of nestin […] 53 deficient DIPG neurospheres were added to plates with 60 known drug samples in an increasing gradient of concentrations.

For the compound `CO[C@H]1C[C@@H]2CC[C@@H](C)[C@@](O)(O2)C(=O)C(=O)N2CCCC[C@H]2C(=O)O[C@H]([C@H](C)C[C@@H]2CC[C@@H](OC(=O)C(C)(CO)CO)[C@H](OC)C2)CC(=O)[C@H](C)/C=C(\C)[C@@H](O)[C@@H](OC)C(=O)[C@H](C)C[C@H](C)/C=C/C=C/C=C/1C` [temsirolimus], the “IC50 Value” in experiment [1] is listed as “>conc tested”.
On the same count and under the same terms, then `C[C@]1(c2nc3c(C(N)=O)cccc3[nH]2)CCCN1` [veliparib], with “>conc tested”.
For the compound `CN(C)c1ccccc1CN1CCCN(Cc2ccccc2N(C)C)C1c1ccncc1` [GANT61], the IC50 in experiment [1] was found to be 7.38 µM.
Consider `NC(=O)c1ccc(-c2nc(-c3ccc4c(c3)OCO4)c(-c3ccccn3)[nH]2)cc1` [SB-431542], for which the “IC50 Value” in experiment [1] is recorded as “>conc tested”.
In the case of `CC(=O)N[C@@H](CS)C(=O)O` [NAC, N-acetyl cysteine], the “IC50 Value” in experiment [1] is listed as “>conc tested”.
Consider `COc1cc2c(Oc3ccc4[nH]c(C)cc4c3F)ncnc2cc1OCCCN1CCCC1` [cediranib], for which, in experiment [1], the “IC50 Value” is given as “>conc tested”.
For the compound `CS(=O)(=O)c1ccc(C(=O)Nc2ccc(Cl)c(-c3ccccn3)c2)c(Cl)c1` [vismodegib], the “IC50 Value” in experiment [1] is given as “>conc tested”.
In the case of `COc1cc(Nc2ncc(F)c(Nc3ccc4c(n3)N(COP(=O)(O)O)C(=O)C(C)(C)O4)n2)cc(OC)c1OC` [fostamatinib], the IC50 in experiment [1] (Homo sapiens) is 5.15 µM.
Consider `NC1(c2ccc(-c3nc4ccn5c(=O)[nH]nc5c4cc3-c3ccccc3)cc2)CCC1` [MK-2206], for which, in experiment [1] (Homo sapiens), the half-maximal inhibitory concentration (IC50) was 5.49 µM.
With `CC(C)(C)c1cnc(CSc2cnc(NC(=O)C3CCNCC3)s2)o1` [SNS-032], the “IC50 Value” in experiment [1] is “>conc tested”. Besides, in the experiment with DIPG neurospheres, the IC50 is 0.505 µM and the viability at 10 µM was < 15%.
For the compound `CCN(CC)CCNC(=O)c1c(C)[nH]c(/C=C2\C(=O)Nc3ccc(F)cc32)c1C` [Sunitinib], in the experiment with DIPG neurospheres, the IC50 is 6.92 µM and the viability at 10 µM is < 15%.
With `CS(=O)(=O)CCNCc1ccc(-c2ccc3ncnc(Nc4ccc(OCc5cccc(F)c5)c(Cl)c4)c3c2)o1` [lapatinib], the “IC50 Value” in experiment [1] is “>conc tested”.
Turning to `CC(C)C[C@H](NC(=O)[C@H](Cc1ccccc1)NC(=O)c1cnccn1)B(O)O` [bortezomib], the IC50 in experiment [1] (Homo sapiens) is 0.821 µM.
As for `COc1nc(C)cnc1NS(=O)(=O)c1cccnc1-c1ccc(-c2nnco2)cc1` [zibotentan], the “IC50 Value” in experiment [1] is given as “>conc tested”.
With `CN1CC[C@H](c2c(O)cc(O)c3c(=O)cc(-c4ccccc4Cl)oc23)[C@H](O)C1` [alvocidib], the “IC50 Value” in experiment [1] is listed as “>conc tested”.
For `Cn1cc(C2=C(c3cn(C4CCN(Cc5ccccn5)CC4)c4ccccc34)C(=O)NC2=O)c2ccccc21` [enzastaurin], the “IC50 Value” in experiment [1] is on record as “>conc tested”.
For the compound `CC(C)[C@H]1C(=O)N[C@@H](CCCN=C(N)N)C(=O)NCC(=O)N[C@@H](CC(=O)O)C(=O)N[C@H](Cc2ccccc2)C(=O)N1C` [cilengitide], in experiment [1], the “IC50 Value” is listed as “>conc tested”.
In the case of `CCN(CC)CCCC(C)Nc1c2ccc(Cl)cc2nc2ccc(OC)cc12` (centres unmarked) [quinacrine], in experiment [1] (Homo sapiens), the IC50 was 4.92 µM.
With `CC1=C(/C=C/C(C)=C/C=C/C(C)=C/C(=O)O)C(C)(C)CCC1` [tretinoin], in experiment [1], the “IC50 Value” is reported as “>conc tested”.
The same measure, in the same setting: in the case of `CN(c1ncccc1CNc1nc(Nc2ccc3c(c2)CC(=O)N3)ncc1C(F)(F)F)S(C)(=O)=O` [PF-562271] it was “>conc tested”.
Regarding `Nc1ccccc1NC(=O)c1ccc(CNC(=O)OCc2cccnc2)cc1` [entinostat], the IC50 in experiment [1] (Homo sapiens) is 1.79 µM.
Take `Cn1c(=O)n(-c2ccc(C(C)(C)C#N)cc2)c2c3cc(-c4cnc5ccccc5c4)ccc3ncc21` [BEZ235]: the “IC50 Value” in experiment [1] is recorded as “>conc tested”.
For `COc1cc2nc(N3CCCN(C)CC3)nc(NC3CCN(Cc4ccccc4)CC3)c2cc1OC` [BIX-01294], the IC50 in experiment [1] (Homo sapiens) amounted to 6.81 µM. In the experiment on DIPG neurospheres, the half-maximal inhibitory concentration (IC50) worked out at 3.95 µM and the viability at 10 µM was < 15%.
Regarding `CC(/C=C/C(=O)NO)=C\[C@@H](C)C(=O)c1ccc(N(C)C)cc1` [trichostatin A], in experiment [1], the IC50 was 5.52 µM.
Regarding `CC(C)(C(=O)NCC(F)(F)C(F)(F)F)C(=O)N[C@@H]1C(=O)Nc2ccccc2-c2ccccc21` [RO4929097], the “IC50 Value” in experiment [1] is on record as “>conc tested”.
As for `N#Cc1ccc(COC[C@H]2O[C@@H](n3c(NCc4ccc(Cl)c(Cl)c4)nc4c(N)ncnc43)[C@H](O)[C@@H]2O)cc1` [VER-155008], in experiment [1], the “IC50 Value” is “>conc tested”.
Take `CCOc1cc(/C=C2/C(=O)N(c3ccccc3)N=C2C)cc(Cl)c1OCC(=O)OC` [SJ-172550]: the “IC50 Value” in experiment [1] was “>conc tested”.
As to `CCNC(=O)c1noc(-c2cc(C(C)C)c(O)cc2O)c1-c1ccc(CN2CCOCC2)cc1` [AUY922], the IC50 in experiment [1] (Homo sapiens) was determined as 1.03 µM.
Turning to `CNC(=O)c1cc(Oc2ccc(NC(=O)Nc3ccc(Cl)c(C(F)(F)F)c3)cc2)ccn1` [sorafenib], the IC50 in experiment [1] (Homo sapiens) worked out at 6.13 µM.
As to `CCCC(=O)[O-].[Na+]` [sodium butyrate], in experiment [1], the “IC50 Value” is given as “>conc tested”.
Consider `Cc1cc(Nc2cc(N3CCN(C)CC3)nc(Sc3ccc(NC(=O)C4CC4)cc3)n2)[nH]n1` [tozasertib], for which the “IC50 Value” in experiment [1] is given as “>conc tested”.
On to `C[C@@H](Oc1cc(-c2cnn(C3CCNCC3)c2)cnc1N)c1c(Cl)ccc(F)c1Cl` [Crizontinib, crizotinib], for which the concentration for half-maximal inhibition (IC50) in experiment [1] (Homo sapiens) is 5.14 µM. Besides, in the experiment on DIPG neurospheres, the IC50 was found to be 6.23 µM and the viability at 10 µM is < 15%.
In the case of `CCOc1cc2ncc(C#N)c(Nc3ccc(F)c(Cl)c3)c2cc1NC(=O)/C=C/CN(C)C` [pelitinib], in experiment [1], the “IC50 Value” is given as “>conc tested”.
Regarding `COc1cc(Nc2ncc3c(n2)-c2ccc(Cl)cc2C(c2c(F)cccc2OC)=NC3)ccc1C(=O)O` [alisertib], the “IC50 Value” in experiment [1] is “>conc tested”.
With `Cc1[nH]c2ccccc2c1CCNCc1ccc(/C=C/C(=O)NO)cc1` [panobinostat], the IC50 in experiment [1] (Homo sapiens) came to 0.245 µM.
In the case of `CNC(=O)CN1CCC(Oc2cc3c(Nc4cccc(Cl)c4F)ncnc3cc2OC)CC1` [AZD-8931], the “IC50 Value” in experiment [1] is on record as “>conc tested”.
Regarding `CC1=C(/C=C/C(C)=C/C=C/C(C)=C/C(=O)Nc2ccc(O)cc2)C(C)(C)CCC1` [fenretinide], the “IC50 Value” in experiment [1] is listed as “>conc tested”.
On to `CN(C)CC[C@H](CSc1ccccc1)Nc1ccc(S(=O)(=O)NC(=O)c2ccc(N3CCN(Cc4ccccc4-c4ccc(Cl)cc4)CC3)cc2)cc1[N+](=O)[O-]` [ABT-737], for which, in experiment [1] (Homo sapiens), the IC50 worked out at 2.66 µM.
As to `Cc1cn(-c2cc(NC(=O)c3ccc(C)c(Nc4nccc(-c5cccnc5)n4)c3)cc(C(F)(F)F)c2)cn1` [nilotinib], in experiment [1], the “IC50 Value” is given as “>conc tested”.
Consider `COC1=CC(c2cc3ccccc3[nH]2)=N/C1=C\c1[nH]c(C)cc1C` [Obatoclax], for which, in the experiment on DIPG neurospheres, the IC50 came to 0.159 µM and the viability at 10 µM is < 15%.
Take `COc1cc2c(Nc3ccc(Br)cc3F)ncnc2cc1OCC1CCN(C)CC1` [vandetanib]: the IC50 in experiment [1] (Homo sapiens) turned out to be 3.04 µM.
Take `CC(C)C[C@H](NC(=O)[C@H](CCc1ccccc1)NC(=O)CN1CCOCC1)C(=O)N[C@@H](Cc1ccccc1)C(=O)N[C@@H](CC(C)C)C(=O)[C@@]1(C)CO1` [Carfilzomib]: the 50% inhibitory concentration (IC50) in experiment [1] (Homo sapiens) amounted to 0.86 µM. Moreover, in the experiment on DIPG neurospheres, the IC50 was found to be 0.834 µM and the viability at 10 µM is < 15%.
As to `Nc1cccc2c1CN(C1CCC(=O)NC1=O)C2=O` (centres unmarked) [lenalidomide], the “IC50 Value” in experiment [1] is on record as “>conc tested”.
